Measured values as given in ChEMBL document CHEMBL3414551, “Selective inhibitors of protein methyltransferases” (J Med Chem, 2015).

Experiments:
[1] = target: T1, Histone-lysine N-methyltransferase EHMT1 (Homo sapiens, UniProt Q9H9B1); test: Inhibition of recombinant human GLP (951 to 1235) using Histone H3 peptide (1 to 15) as substrate preincubated on ice for 10 mins followed by 5 mins incubation at 30 degC measured 5 mins post substrate addition by mass spectrophotometric analysis
T1 sequence (Q9H9B1 whole entry): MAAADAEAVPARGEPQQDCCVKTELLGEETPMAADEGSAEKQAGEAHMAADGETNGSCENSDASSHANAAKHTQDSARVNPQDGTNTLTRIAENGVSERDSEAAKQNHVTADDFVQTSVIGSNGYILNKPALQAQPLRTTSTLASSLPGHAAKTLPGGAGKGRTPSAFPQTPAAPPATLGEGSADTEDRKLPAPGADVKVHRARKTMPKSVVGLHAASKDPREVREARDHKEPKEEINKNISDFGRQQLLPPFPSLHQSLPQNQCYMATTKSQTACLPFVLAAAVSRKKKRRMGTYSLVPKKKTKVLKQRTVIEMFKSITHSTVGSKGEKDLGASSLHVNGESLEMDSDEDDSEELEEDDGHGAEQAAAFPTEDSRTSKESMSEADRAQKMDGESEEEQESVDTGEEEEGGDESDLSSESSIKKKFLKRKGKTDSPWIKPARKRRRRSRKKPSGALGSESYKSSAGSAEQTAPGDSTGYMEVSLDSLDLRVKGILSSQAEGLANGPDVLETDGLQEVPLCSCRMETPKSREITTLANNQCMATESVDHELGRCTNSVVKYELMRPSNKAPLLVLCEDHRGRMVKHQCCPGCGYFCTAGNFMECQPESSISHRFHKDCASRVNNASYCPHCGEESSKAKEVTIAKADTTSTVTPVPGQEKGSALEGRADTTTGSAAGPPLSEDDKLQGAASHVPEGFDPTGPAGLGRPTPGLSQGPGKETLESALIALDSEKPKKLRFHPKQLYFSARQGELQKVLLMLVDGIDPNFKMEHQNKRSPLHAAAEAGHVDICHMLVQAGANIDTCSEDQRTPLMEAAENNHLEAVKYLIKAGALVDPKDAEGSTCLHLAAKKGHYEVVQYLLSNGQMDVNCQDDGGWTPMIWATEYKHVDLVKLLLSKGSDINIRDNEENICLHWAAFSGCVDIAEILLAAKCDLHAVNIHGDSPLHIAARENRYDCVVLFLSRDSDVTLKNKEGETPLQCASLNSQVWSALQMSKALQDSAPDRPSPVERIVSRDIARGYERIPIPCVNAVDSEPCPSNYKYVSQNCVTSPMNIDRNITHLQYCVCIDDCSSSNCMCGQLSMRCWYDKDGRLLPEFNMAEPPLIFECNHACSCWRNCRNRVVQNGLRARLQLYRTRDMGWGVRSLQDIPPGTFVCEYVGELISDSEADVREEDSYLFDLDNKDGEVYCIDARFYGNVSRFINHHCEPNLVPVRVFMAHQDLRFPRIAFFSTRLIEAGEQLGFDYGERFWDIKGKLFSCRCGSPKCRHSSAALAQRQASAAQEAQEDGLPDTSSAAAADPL

[2] = target: T2, Histone-lysine N-methyltransferase EHMT2 (Homo sapiens, UniProt Q96KQ7); test: Inhibition of G9a (unknown origin) using SAM/biotinylated H3 as substrate preincubated for 1 hr followed by substrate addition measured after 2 hrs by ELISA
T2 sequence (Q96KQ7 whole entry): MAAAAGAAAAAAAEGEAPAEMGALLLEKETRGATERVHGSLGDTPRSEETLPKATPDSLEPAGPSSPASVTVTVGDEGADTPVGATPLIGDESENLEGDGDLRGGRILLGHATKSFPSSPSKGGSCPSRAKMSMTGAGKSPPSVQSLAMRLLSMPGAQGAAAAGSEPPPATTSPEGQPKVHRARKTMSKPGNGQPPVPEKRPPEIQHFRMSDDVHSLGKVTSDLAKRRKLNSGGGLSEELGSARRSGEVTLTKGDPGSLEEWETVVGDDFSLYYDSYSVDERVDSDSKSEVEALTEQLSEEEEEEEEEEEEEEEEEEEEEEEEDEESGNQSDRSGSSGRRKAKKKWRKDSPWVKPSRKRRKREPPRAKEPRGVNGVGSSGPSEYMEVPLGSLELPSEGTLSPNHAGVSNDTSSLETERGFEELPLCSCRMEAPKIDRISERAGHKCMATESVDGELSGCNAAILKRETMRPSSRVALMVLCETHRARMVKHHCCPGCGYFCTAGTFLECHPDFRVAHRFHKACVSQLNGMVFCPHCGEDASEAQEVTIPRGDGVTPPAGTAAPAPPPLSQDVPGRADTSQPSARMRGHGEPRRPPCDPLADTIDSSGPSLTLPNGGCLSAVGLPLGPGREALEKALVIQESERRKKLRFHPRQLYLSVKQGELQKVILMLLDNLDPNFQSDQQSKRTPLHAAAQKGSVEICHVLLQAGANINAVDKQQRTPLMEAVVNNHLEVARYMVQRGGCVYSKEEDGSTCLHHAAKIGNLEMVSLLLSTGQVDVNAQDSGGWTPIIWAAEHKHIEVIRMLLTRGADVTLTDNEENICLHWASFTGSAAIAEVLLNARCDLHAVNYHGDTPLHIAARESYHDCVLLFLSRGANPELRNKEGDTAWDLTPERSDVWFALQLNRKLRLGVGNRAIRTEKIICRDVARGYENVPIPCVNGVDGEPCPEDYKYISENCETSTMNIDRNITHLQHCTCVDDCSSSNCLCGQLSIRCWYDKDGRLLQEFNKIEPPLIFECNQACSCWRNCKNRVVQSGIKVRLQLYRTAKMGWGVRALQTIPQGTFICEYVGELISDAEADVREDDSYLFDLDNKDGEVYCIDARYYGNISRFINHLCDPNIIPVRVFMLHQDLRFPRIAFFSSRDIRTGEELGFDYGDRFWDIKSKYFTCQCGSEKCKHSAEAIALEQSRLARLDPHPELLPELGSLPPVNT

[3] = target: N-lysine methyltransferase SMYD2 (Homo sapiens, UniProt Q9NRG4); test: Binding affinity to recombinant human full-length SMYD2 (1 to 433) by ITC analysis
Chain of N-lysine methyltransferase SMYD2 (Q9NRG4 whole entry): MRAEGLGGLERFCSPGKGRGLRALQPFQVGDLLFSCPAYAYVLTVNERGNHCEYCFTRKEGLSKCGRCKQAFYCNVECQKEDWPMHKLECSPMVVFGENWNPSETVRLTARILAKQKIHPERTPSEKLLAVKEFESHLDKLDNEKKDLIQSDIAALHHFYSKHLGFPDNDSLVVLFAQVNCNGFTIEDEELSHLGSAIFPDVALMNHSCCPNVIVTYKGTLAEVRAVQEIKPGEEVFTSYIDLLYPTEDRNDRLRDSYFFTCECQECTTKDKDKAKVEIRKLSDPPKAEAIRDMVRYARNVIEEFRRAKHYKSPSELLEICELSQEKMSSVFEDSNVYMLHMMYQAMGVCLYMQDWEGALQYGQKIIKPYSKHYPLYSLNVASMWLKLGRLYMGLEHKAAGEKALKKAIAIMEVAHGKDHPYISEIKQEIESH

[4] = target: T3, Histone-lysine N-methyltransferase EZH2 (Homo sapiens, UniProt Q15910); test: Inhibition of EZH2 (unknown origin) using biotinylated-histone H3 (1 to 24) as substrate after 1 hr by scintillation proximity assay in presence of [3H]-SAM
T3 sequence (Q15910 whole entry): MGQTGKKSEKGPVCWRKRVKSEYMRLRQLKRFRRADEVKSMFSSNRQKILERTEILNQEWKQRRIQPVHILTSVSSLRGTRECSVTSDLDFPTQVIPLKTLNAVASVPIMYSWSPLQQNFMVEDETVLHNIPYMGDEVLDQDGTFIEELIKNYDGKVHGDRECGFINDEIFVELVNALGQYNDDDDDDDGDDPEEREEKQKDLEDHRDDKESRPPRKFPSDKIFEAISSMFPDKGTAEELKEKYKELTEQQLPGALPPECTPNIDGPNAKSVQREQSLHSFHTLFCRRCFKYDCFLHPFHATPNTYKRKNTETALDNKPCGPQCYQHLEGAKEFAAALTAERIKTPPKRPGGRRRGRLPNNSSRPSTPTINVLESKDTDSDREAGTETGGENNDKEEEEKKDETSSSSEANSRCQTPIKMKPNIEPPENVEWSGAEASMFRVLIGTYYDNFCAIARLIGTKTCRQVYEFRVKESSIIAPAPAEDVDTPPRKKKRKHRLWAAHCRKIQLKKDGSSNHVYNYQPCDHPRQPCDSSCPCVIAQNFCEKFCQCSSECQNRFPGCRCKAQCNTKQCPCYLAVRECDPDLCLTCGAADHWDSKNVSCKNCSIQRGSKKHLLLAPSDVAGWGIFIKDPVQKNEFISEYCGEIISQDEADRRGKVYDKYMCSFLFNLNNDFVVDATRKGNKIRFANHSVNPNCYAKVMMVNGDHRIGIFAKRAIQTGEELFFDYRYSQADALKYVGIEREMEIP

[5] = target: T4, Histone-arginine methyltransferase CARM1 (Homo sapiens) (UniProt Q86X55); test: Inhibition of CARM1 in human HeLa cells assessed as reduction of H3R17 methylation at 5 uM after 24 hrs by Western blot analysis relative to control; assay type: cell-based
T4 sequence (whole entry): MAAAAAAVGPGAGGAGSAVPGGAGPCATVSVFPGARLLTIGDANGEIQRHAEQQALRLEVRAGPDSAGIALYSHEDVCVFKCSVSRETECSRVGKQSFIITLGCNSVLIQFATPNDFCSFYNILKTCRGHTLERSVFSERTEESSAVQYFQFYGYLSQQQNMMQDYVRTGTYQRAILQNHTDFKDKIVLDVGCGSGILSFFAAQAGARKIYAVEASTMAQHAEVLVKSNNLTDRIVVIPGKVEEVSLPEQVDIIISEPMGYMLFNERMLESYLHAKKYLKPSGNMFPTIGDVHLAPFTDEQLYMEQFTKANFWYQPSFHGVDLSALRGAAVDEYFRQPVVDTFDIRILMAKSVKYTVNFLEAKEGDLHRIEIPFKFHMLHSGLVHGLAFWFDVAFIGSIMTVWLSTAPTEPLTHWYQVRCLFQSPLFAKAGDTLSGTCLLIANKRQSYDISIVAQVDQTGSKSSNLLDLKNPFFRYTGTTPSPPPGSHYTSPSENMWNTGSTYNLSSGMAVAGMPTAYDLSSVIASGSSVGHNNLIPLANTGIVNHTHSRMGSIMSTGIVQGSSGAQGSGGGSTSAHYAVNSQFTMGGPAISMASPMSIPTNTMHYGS

[6] = target: Histone-lysine N-methyltransferase, H3 lysine-79 specific (Homo sapiens, UniProt Q8TEK3); test: Inhibition of DOT1L in human MCF10A cells assessed as reduction of H3K79 level; assay type: cell-based, MCF-10A
Chain of Histone-lysine N-methyltransferase, H3 lysine-79 specific (Q8TEK3 whole entry): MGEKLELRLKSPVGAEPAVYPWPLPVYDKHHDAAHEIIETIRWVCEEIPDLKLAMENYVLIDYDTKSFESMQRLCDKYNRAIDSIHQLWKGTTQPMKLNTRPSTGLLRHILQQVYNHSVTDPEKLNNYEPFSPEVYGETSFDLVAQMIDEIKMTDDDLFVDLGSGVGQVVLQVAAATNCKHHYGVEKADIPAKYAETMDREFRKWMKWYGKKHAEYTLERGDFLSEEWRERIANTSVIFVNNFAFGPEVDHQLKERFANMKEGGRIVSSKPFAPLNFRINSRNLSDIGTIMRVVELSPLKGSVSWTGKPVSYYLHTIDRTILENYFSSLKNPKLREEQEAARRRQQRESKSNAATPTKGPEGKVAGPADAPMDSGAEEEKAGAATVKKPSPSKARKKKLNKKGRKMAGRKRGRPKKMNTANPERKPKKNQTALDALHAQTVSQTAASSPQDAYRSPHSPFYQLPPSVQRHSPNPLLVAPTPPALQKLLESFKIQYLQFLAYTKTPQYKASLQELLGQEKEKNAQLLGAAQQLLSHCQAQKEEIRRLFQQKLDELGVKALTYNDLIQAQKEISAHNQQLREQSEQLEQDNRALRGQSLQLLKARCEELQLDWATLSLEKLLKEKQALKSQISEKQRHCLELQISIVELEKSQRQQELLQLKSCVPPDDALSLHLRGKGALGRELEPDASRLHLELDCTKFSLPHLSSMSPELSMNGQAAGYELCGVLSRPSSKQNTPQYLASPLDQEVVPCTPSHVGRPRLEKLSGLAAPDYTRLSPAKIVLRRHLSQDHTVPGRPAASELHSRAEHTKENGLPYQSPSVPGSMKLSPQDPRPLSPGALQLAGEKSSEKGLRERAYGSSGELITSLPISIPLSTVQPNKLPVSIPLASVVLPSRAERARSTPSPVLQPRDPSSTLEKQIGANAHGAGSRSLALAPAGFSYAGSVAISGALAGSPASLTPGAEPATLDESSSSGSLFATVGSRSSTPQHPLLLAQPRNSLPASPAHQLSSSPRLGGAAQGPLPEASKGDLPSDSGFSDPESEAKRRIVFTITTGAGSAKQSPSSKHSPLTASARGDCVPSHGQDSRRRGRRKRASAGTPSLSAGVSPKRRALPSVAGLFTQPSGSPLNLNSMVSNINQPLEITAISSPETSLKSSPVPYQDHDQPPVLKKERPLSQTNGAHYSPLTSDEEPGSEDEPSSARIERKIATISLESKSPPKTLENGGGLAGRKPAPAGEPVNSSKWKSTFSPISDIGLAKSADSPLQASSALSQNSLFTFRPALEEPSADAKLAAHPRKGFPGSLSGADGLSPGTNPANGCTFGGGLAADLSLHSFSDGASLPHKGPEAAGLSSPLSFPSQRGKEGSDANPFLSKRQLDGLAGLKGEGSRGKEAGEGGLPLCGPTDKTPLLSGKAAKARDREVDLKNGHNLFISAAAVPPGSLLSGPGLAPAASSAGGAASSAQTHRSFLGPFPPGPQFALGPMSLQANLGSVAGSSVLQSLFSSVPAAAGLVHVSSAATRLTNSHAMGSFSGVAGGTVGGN

[7] = target: T5, Protein arginine N-methyltransferase 1 (Homo sapiens, UniProt Q99873); test: Inhibition of recombinant human GST-tagged PRMT1 using GST-Npl3 as substrate
T5 sequence (Q99873 whole entry): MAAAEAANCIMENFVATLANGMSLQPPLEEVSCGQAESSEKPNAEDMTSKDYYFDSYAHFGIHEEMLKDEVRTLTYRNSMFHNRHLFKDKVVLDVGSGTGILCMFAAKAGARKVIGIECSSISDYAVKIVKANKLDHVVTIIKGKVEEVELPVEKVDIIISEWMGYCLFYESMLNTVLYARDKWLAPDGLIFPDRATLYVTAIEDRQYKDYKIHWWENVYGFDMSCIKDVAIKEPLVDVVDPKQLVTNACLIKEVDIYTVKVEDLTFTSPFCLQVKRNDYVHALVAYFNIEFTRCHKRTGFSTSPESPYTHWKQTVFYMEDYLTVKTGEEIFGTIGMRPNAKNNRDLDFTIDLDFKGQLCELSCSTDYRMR

[8] = target: T6, Histone-arginine methyltransferase CARM1 (Homo sapiens, UniProt Q86X55); test: Inhibition of recombinant human GST-tagged CARM1
T6 sequence (Q86X55 whole entry): T4 sequence (whole entry)

Homo sapiens [9] = species: Homo sapiens; test: Selectivity ratio of IC50 for human SMYD2 to IC50 for N-terminal His6-tagged human SETD8 (191 to 352)
Homo sapiens [10] = species: Homo sapiens; test: Selectivity ratio of IC50 for N-terminal His6-tagged human PRMT1 (10 to 352) to IC50 for N-terminal His6-tagged human SETD8 (191 to 352)
Homo sapiens [11] = species: Homo sapiens; test: Selectivity ratio of IC50 for N-terminal His6-tagged human PRMT3 (211 to 531) to IC50 for N-terminal His6-tagged human SETD8 (191 to 352)
Mus musculus = test: Cmax in Swiss albino mouse at 50 mg/kg, po; assay type: ADME, organism-based; set-up: dose 50 mg/kg, route oral; details: in vivo
[12] = target: T5, Protein arginine N-methyltransferase 1; test: Inhibition of recombinant GST-tagged PRMT1 (unknown origin) using GST-P3 as substrate after 90 mins by scintillation counting analysis in presence of [3H]AdoMet
REH = test: cells; details: Homo sapiens
Kasumi 1 = test: cells; details: Homo sapiens
697 = test: cells; details: Homo sapiens
cells [13] = details: Homo sapiens, HL-60
Jurkat = test: cells; details: Homo sapiens
cells [14] = details: Homo sapiens, U-937
[15] = target: T7, N-lysine methyltransferase KMT5A (Homo sapiens, UniProt Q9NQR1); test: Inhibition of N-terminal His6-tagged human SETD8 (191 to 352) assessed as incorporation of [3H]-methyl group from [3H-Me]-SAM to biotinylated H4K20 peptide substrate preincubated for 10 mins followed by substrate addition by liquid scintillation counting analysis
T7 sequence (Q9NQR1 whole entry): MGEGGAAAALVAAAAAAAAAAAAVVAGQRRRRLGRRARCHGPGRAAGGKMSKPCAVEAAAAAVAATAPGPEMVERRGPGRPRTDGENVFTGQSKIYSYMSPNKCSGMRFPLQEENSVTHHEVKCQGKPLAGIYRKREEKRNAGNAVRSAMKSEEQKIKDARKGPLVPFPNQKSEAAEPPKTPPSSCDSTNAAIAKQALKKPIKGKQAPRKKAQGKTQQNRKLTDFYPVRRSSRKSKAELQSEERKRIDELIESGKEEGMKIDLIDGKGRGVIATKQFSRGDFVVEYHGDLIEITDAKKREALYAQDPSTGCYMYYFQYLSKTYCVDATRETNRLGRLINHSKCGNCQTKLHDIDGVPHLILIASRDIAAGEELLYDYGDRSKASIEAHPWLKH

[16] = target: T3, Histone-lysine N-methyltransferase EZH2; test: Inhibition of N-terminal FLAG tagged full-length human EZH2 expressed in baculovirus infected Sf9 cells using H3K27 as substrate after 120 mins by mass spectrophotometric analysis
[17] = target: Histone-lysine N-methyltransferase EZH2 (Homo sapiens, UniProt Q15910, Y641F); test: Inhibition of N-terminal FLAG tagged human EZH2 Y641F mutant expressed in baculovirus infected Sf9 cells using H3K27 as substrate after 120 mins by mass spectrophotometric analysis
Chain of Histone-lysine N-methyltransferase EZH2 (Homo sapiens, UniProt Q15910, Y641F) (Q15910 whole entry Y641F): as the sequence (Q15910 whole entry) above, with Y641F counted along it

[18] = target: T3, Histone-lysine N-methyltransferase EZH2; test: Inhibition of N-terminal FLAG tagged full-length human EZH2 expressed in baculovirus infected Sf9 cells using H3K27 as substrate in presence of SAM
[19] = target: T3, Histone-lysine N-methyltransferase EZH2; test: Inhibition of human EZH2 using SAM and histone H3 (16 to 30) as substrate preincubated for 30 mins followed by substrate addition measured after 90 mins by flash plate assay

## COc1cc2c(NC3CCN(CCCCCN)CC3)nc(NCCCN(C)C)nc2cc1OCCCCCN
[1]
  IC50: 100 nM

## CN1C(=O)[C@@H]2C[C@@]3([C@@]45C[C@H]6C(=O)N(C)[C@@H](CO)C(=O)N6[C@@H]4Nc4ccccc45)c4ccccc4N[C@H]3N2C(=O)[C@@H]1CO
[2]
  IC50: > 50000 nM

## O=C1COc2c(CCNCCN(C(=O)CCNCCc3ccc(Cl)c(Cl)c3)C3CCCCC3)ccc(O)c2N1
[3]
  Kd: 500 nM

## CCCc1cc(C)[nH]c(=O)c1CNC(=O)c1cc(-c2ccc(N3CCN(CCCCc4cn(CCN5C(=O)\C(=C/C=C/C=C6/N(CCC(=O)OCOC(C)=O)c7ccc(C(=O)OCOC(C)=O)cc7C6(C)C)C(=O)N(CC)C5=O)nn4)CC3)nc2)cc2c1cnn2C(C)C
[4]
  IC50: 21 nM

## O=c1oc2c(O)c(O)cc3c(=O)oc4c(O)c(O)cc1c4c23
[5]
  inhibition: > 50%

## CC(C)N(CCCNC(=O)Nc1ccc(C(C)(C)C)cc1)C[C@H]1O[C@@H](n2cc(Br)c3c(N)ncnc32)[C@H](O)[C@@H]1O
[6]
  IC50: 8.8 nM

## COc1ccc(/N=N/c2c(S(=O)(=O)O)cc3cc(Nc4nc(Cl)nc(Cl)n4)ccc3c2O)cc1
[7]
  IC50: 4200 nM
[8]
  IC50: 2600 nM

## O=C1C(Cl)=C(NCCN2CCOCC2)C(=O)c2ncccc21
Homo sapiens [9]
  Ratio IC50: 2.5
Homo sapiens [10]
  Ratio IC50: > 6
Homo sapiens [11]
  Ratio IC50: > 6

## CCCc1cc(C)[nH]c(=O)c1CNC(=O)c1cc(-c2ccc(N3CCN(C(C)C)CC3)nc2)cc2c1cnn2C(C)C
[4]
  IC50: < 10 nM
Mus musculus
  Cmax: 4.7 µM

## NCCCN(CC[C@H](N)C(=O)O)C[C@H]1O[C@@H](n2cnc3c(N)ncnc32)[C@H](O)[C@@H]1O
[12]
  IC50: 3900 nM

## CC(C)N(CCCNC(=O)Nc1ccc(C(C)(C)C)cc1)C[C@H]1O[C@@H](n2ccc3c(N)ncnc32)[C@H](O)[C@@H]1O
REH
  IC50: > 10000 nM
Kasumi 1
  IC50: > 10000 nM
697
  IC50: > 10000 nM
Cells [13]
  IC50: > 10000 nM
Jurkat
  IC50: > 10000 nM
Cells [14]
  IC50: > 10000 nM

## Cc1ccc(/N=C2\CC(=O)c3sc(C)nc3C2=O)cc1
[15]
  IC50: 500 nM

## CCC(CC)n1ccc2c(C(=O)NCc3c(C)cc(C)[nH]c3=O)cc(C#N)cc21
[16]
  IC50: 15 nM
[17]
  IC50: 13 nM
[18]
  Ki: 13 nM

## Cc1cc(C)c(CNC(=O)c2cc(-c3ccc4c(c3)OCCO4)nc3c2cnn3C(C)C)c(=O)[nH]1
[19]
  IC50: 620 nM
